How the values were obtained:
[1] = test system: Nrf2 knockdown H9c2 cells; test: OGD/R viability in Nrf2 siRNA knockdown H9c2; format: cell-based, rat; details: Nrf2 siRNA 24 h, H9c2, MTT
Description: (§1) Cell viability was determined by MTT assays. PBA was prepared to a stock solution dissolved in dimethyl sulfoxide (DMSO). RAW264.7, H9c2 cells, primary mouse cardiomyocytes were treated with different doses of PBA, and DMSO only as control for 48 h for the toxicity. In addition, H9c2 cells or primary mouse cardiomyocytes were treated with the indicated doses of PBA, diazoxide as positive control, DMSO only as control, then cultured with or without OGD/R treatment. At the end of the experiments, MTT was added into each well at the concentration of 0.5 mg/ml, and incubated at 37 °C for 4 h. After removal of the supernatant, 150 μL of DMSO was added to solubilize the formazan products. And the solution was measured at the absorbance of 490 nm by a spectrophotometer (Thermo Fisher Scientific, MA, USA). The results of the MTT assay in all groups were normalized to the control group with DMSO only treatment.
For transient transfection, HiPerFect Transfection Reagent (Qiagen, German) was used according to the manufacturer's instructions. Nrf2 siRNA (h) (sc-156128) and control siRNA-A (sc-37007) were bought from Santa Cruz Biotechnology. Briefly, H9c2 cells were seeded in 96-well plate at the density of 2x10^4 cells per well or 12-well plate at the density of 3x10^5 cells per well. According to preliminary results, transfection with siRNA for 24 h could get a better knockdown effect. […]

NLRP3 inflammasome [2] = test: OGD/R-induced NLRP3 inflammasome activation in primary cardiomyocytes; format: cell-based, mouse; details: OGD 3 h, reperfusion 18 h, dose-dependent
Description: (§2) The heart was removed from the neonatal C57BL/6 mice and cut into 1 mm^3 pieces in ice […] buffer. The tissues were digested with the mixture of 0.125% trypsin (Gibco, 15090-046) and 0.1% type II collagenase (Gibco, 17101-015) 6 min at 37 °C for three times until the tissues were completely digested. The cells were harvested and seeded in a dish. After 90 min of incubation, the cell culture medium was collected and centrifuged. The centrifuged cardiomyocytes were harvested, seeded on 0.1 % gelatin-coated culture plates with DMEM containing 10% FBS and […] Brdu, and incubated in a 37°C incubator.
Total protein was isolated from H9c2 cells, primary mouse cardiomyocytes, RAW264.7 cells and heart tissue using 1X RIPA buffer containing phosphatase and proteinase inhibitors at 4 °C. […] After the membranes was washed by TBST buffer for three times, they were incubated with horseradish peroxidase (HRP)-conjugated secondary mouse or rabbit antibodies (1:3,000 dilution) at room temperature (RT) for 1.5 h and then detected by SuperEnhanced chemiluminescence (ECL) reaction reagents (GBCBIO Technologies Inc., Guangzhou, Guangdong, China). […] After letting the membranes stand for 1-2 min, the bands of the respective proteins were detected with the exposure time of 10 ~60 s.

[3] = test system: primary neonatal mouse cardiomyocytes; test: MTT cytotoxicity, primary cardiomyocytes; format: cell-based; details: under 240 μM, 48 h
Description: as §2
as §1, with “After removal of the supernatant, 150 μL of DMSO was added to solubilize the formazan products.” left out, “The results of the MTT assay in all groups were normalized to the control group with DMSO only treatment.” left out

NLRP3 inflammasome [4] = test: LPS plus ATP-induced NLRP3 inflammasome in RAW264.7; format: cell-based
Description: Based on the previous study, RAW264.7 cells were treated with different concentrations of PBA 1 h before 200 ng/mL lipopolysaccharide (LPS) stimulation for 6 h. Then, 2 mM adenosine triphosphate (ATP) was added and incubated for 20 min at 37 °C with 5% CO2.
Total protein was isolated from H9c2 cells, primary mouse cardiomyocytes, RAW264.7 cells and heart tissue using 1X RIPA buffer containing phosphatase and proteinase inhibitors at 4 °C. After measurement of the concentration, the cell lysates were separated by sodium dodecyl sulphate polyacrylamide gel electrophoresis (SDS-PAGE) and transferred to polyvinylidene fluoride (PVDF) membranes. The membranes were blocked in Tris-buffered saline-Tween 20 (TBST) buffer with 5% BSA for 1 h and incubated with primary antibodies (1:1000 dilution) overnight at 4 °C. After the membranes was washed by TBST buffer for three times, they were incubated with horseradish peroxidase (HRP)-conjugated secondary mouse or rabbit antibodies (1:3,000 dilution) at room temperature (RT) for 1.5 h and then detected by SuperEnhanced chemiluminescence (ECL) reaction reagents (GBCBIO Technologies Inc., Guangzhou, Guangdong, China). […] After letting the membranes stand for 1-2 min, the bands of the respective proteins were detected with the exposure time of 10 ~60 s.
According to previous experiences, Nrf2 nucleus translocation could be detected at 6 h. […]

C=C(COC(=O)C=Cc1ccc(O)c(O)c1)C(O)COC1OC(CO)C(O)C(O)C1O (centres unmarked) [PBA, pubescenoside A]
cardioprotection against OGD/R after Nrf2 knockdown [1]: blocked | OGD/R-induced inflammasome activation (NLRP3, cleaved-caspase1, mature IL-1β) (NLRP3 inflammasome [2]): substantially inhibited | cell toxicity (MTT) [3]: did not exhibit any cell toxicity | LPS/ATP-induced ACS and Caspase1 expression (immunofluorescent staining) (NLRP3 inflammasome [4]; RAW264.7, 30 μM): significantly reduced | LPS/ATP-mediated NLPR3 induction, cleaved-caspase1 and IL-1β (NLRP3 inflammasome [4]; RAW264.7, PBA 1 h pretreatment, 200 ng/mL LPS 6 h, 2 mM ATP 20 min, western blot): attenuated

— PMC7738871, “Covalent modification of Keap1 at Cys77 and Cys434 by pubescenoside a suppresses oxidative stress-induced NLRP3 inflammasome activation in myocardial ischemia-reperfusion injury” (Theranostics, 2021)
